The values that follow come from US20130122147A1, “METHODS FOR ENHANCING THE PALATABILITY OF COMESTIBLE COMPOSITIONS” (priority 2010, published 2013).

The test system of this experiment is dogs. Put plainly: Two-bowl choice palatability test of pet foods. The experiment is classed as in vivo. The protocol: Palatability testing followed the industry standard protocol for assessing preference, i.e., the two-bowl choice test. The dogs were tested individually inside their kennels. The panels consisted of a mix of breeds, distributed as equally as possible. The dogs were at least 12 months of age and the sex distribution was as equal as possible within panels. A choice of two bowls each with the same amount food, the test and the control diets, was offered simultaneously. The maximum length of the time the products were offered to the dogs was 20 minutes. Water was available at all times via an automatic water system. Bowl assignment for the foods was always counterbalanced.
At the end of a test, food consumption for each pet food for each dog was determined by subtracting the amount of food remaining in the bowls from what was initially offered to the dogs. A dog's preference was determined based on which food was most consumed.
The experiment was repeated twice.

Consider `CCCCCCCC/C=C\CCCCCCCC(=O)NCCO` [OEA, N-oleoyl-ethanolamide], for which the “Effect of OEA on palatability of the pet food (result in words)” value (food of Table 9 (0.41% OEA in basal meal) vs control Ex 7) was “enhanced the palatability”. Besides, the “Effect of OEA on palatability of the pet foods (result in words)” value (foods of Table 8 (0.066-0.566% OEA) vs control Ex 1) is listed as “enhanced the palatability”.
